Source: patent US20150315188A1, “COMPOUNDS AND METHODS FOR TREATMENT OF HYPERTENSION” (MEDIVATION TECHNOLOGIES, INC., priority 2012, published 2015)
Where “and” joins values, the source holds several entries; their conditions need not be identical. Equal values may be shown once.

Experiments:
Set-up in all cases: purchased Milipore (Millipore)
[1] = biological target: T1, Human adrenergic α1B receptor (Homo sapiens, UniProt P35368); experiment: Radioligand binding, adrenergic α1B (Protocol Group B); settings: Protocol Group B; for Percentage inhibition of ligand binding, Adrenergic α1B (0.1 μM): 0.1 μM compound; for Percentage inhibition of ligand binding, Adrenergic α1B (0.3 μM): 0.3 μM compound
T1 sequence (P35368 1-520): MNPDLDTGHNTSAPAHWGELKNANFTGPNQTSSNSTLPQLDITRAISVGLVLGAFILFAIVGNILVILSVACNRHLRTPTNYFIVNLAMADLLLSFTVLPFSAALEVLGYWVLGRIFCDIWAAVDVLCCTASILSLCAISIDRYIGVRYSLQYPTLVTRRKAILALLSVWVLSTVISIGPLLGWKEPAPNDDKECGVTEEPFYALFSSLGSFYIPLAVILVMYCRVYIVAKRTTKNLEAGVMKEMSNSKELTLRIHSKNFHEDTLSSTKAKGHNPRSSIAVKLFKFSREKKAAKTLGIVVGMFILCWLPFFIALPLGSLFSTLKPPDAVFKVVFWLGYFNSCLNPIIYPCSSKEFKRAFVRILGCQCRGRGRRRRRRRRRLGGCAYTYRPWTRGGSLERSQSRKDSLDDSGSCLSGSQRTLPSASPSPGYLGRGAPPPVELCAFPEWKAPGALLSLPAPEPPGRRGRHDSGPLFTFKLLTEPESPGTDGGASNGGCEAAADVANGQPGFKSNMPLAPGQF
Experimental: To evaluate the activity of compounds in radioligand binding assays, Human adrenergic α1B receptor obtained from recombinant cell membrane from Milipore. Binding experiments were carried out in Tris-HCl buffer (50 mM Tris-HCl buffer, pH 7.4, 10 mM Mgcl2, 1 mM EDTA) as recommended by Milipore. Compounds were incubated with 0.3 nM [^3H]Prazosin for 60 min at 25° C. Non-specific binding was estimated in the presence of 10 μM prazosin. Receptor proteins were harvested on 0.33% PEI(poly-ethylenemine) soaked GFC filter mat, the specifically bound [^3H]Prazosin were counted to determine total binding. Compounds were screened at various concentrations, using 1% DMSO as vehicle. percent inhibition of specific binding was determined. Biochemical assay results are presented as the percent Inhibition of specific binding in Table B1b, or estimated Ki values in Table B1c.

[2] = biological target: T2, Human adrenergic α2A receptor (Homo sapiens, UniProt P08913); experiment: Radioligand binding, adrenergic α2A (Protocol Group B); settings: Protocol Group B; for Percentage inhibition of ligand binding, Adrenergic α2A (0.1 μM): 0.1 μM compound
T2 sequence (P08913 1-465): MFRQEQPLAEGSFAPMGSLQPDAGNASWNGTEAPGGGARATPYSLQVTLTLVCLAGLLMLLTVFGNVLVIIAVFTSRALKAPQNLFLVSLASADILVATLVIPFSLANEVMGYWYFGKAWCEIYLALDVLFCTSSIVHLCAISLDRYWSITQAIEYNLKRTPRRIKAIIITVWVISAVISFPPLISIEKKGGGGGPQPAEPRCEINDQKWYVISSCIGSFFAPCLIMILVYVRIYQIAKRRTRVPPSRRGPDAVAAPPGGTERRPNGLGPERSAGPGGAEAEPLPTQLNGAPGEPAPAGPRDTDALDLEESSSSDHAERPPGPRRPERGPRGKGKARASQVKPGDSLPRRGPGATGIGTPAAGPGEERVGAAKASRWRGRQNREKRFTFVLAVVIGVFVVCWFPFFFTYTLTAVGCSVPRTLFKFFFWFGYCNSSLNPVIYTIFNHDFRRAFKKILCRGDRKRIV
Experimental: To evaluate the activity of compounds in radioligand binding assays, Human adrenergic α2A receptor obtained from recombinant cell membrane from Milipore. Binding experiments were carried out in Tris-HCl buffer (50 mM Tris-HCl buffer, pH 7.4, 5 mM Mgcl2, 1 mM Cacl2, 0.2% BSA) as recommended by Milipore. Compounds were incubated with 2 nM [^3H]MK-912 for 60 min at 25° C. Non-specific binding was estimated in the presence of 10 μM Rauwolscine. Receptor proteins were harvested on 0.33% PEI(poly-ethylenemine) soaked GFC filter mat, the specifically bound [^3H]MK-912 were counted to determine total binding. Compounds were screened at various concentrations, using 1% DMSO as vehicle. percent inhibition of specific binding was determined. Biochemical assay results are presented as the percent Inhibition of specific binding in Table B1b, or estimated Ki values in Table B1c.

[3] = biological target: T3, Human adrenergic α2B receptor (Homo sapiens, UniProt P18089); experiment: Radioligand binding, adrenergic α2B (Protocol Group B); settings: Protocol Group B; for Percentage inhibition of ligand binding, Adrenergic α2B (10 nM): 0.01 µM; for Percentage inhibition of ligand binding, Adrenergic α2B (30 nM): 30 nM compound, 0.03 µM; for Percentage inhibition of ligand binding, Adrenergic α2B (0.1 μM): 0.1 μM compound
T3 sequence (P18089 1-450): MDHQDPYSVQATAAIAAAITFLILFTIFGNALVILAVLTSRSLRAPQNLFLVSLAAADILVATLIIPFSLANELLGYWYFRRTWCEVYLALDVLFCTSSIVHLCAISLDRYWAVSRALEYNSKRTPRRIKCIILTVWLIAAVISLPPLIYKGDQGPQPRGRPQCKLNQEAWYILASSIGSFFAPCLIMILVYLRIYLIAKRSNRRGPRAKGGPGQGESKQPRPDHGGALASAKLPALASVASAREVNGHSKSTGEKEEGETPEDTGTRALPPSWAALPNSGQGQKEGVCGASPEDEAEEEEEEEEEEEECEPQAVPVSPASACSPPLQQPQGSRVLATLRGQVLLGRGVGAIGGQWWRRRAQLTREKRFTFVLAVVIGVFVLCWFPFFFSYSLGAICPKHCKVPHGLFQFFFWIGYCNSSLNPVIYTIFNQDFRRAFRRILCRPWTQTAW
Experimental: To evaluate the activity of compounds in radioligand binding assays, Human adrenergic α2B receptor obtained from recombinant cell membrane from Milipore. Binding experiments were carried out in Tris-HCl buffer (50 mM Tris-HCl buffer, pH 7.4, 5 mM Mgcl2, 1 mM Cacl2, 0.2% BSA) as recommended by Milipore. […] Non-specific binding was estimated in the presence of 10 μM Rauwolscine. […] Compounds were screened at various concentrations, using 1% DMSO as vehicle. Biochemical assay results are presented as the percent Inhibition of specific binding in Table B1b, or estimated Ki values in Table B1c.

Compound	Percentage inhibition of ligand binding, Adrenergic α1B (0.1 μM) ([1]; 0.1 µM) [%]	Percentage inhibition of ligand binding, Adrenergic α1B (0.3 μM) [1] [%]	Percentage inhibition of ligand binding, Adrenergic α2A (0.1 μM) [2] [%]	Percentage inhibition of ligand binding, Adrenergic α2A (0.3 μM) ([2]; 0.3 μM compound, 0.3 µM) [%]	Percentage inhibition of ligand binding, Adrenergic α2B (10 nM) ([3]; 10 nM compound) [%]	Percentage inhibition of ligand binding, Adrenergic α2B (30 nM) [3]	Percentage inhibition of ligand binding, Adrenergic α2B (0.1 μM) [3] [%]	inhibition at 0.3 µM ([2]; 0.3 μM compound, read-out: Percentage inhibition of ligand binding, Adrenergic α2A (0.3 μM)) [%]	Percentage inhibition of ligand binding, Adrenergic α2A (0.3 μM) ([2]; 0.3 μM compound) [%]	inhibition at 0.01 µM ([3]; 10 nM compound, read-out: Percentage inhibition of ligand binding, Adrenergic α2B (10 nM)) [%]	Percentage inhibition of ligand binding, Adrenergic α1B (0.1 μM) [1] [%]
Cc1cc(C)c2c(c1)c1c(n2CC(C)(O)c2ccncc2)CCN2CCCC12 (single isomer, unassigned) [19c]	−5	−1	−7	1	−13	−12%	6	–	–	–	–
Cc1cc(C)c2c(c1)c1c(n2CC(C)(O)c2ccncc2)CCN2CCCC12 (single isomer, unassigned) [19d]	−8	−5	−8	−5	−9	−4%	−1	–	–	–	–
CC(O)(Cn1c2c(c3cc(F)ccc31)C1CCCN1CC2)c1ccncc1 (single isomer, unassigned) [31c]	1	−4	0	−21	–	−2%	45	–	–	3	–
CC(O)(Cn1c2c(c3cc(F)ccc31)C1CCCN1CC2)c1ccncc1 (single isomer, unassigned) [31d]	0	11	−11	6	4	−11%	17	–	–	–	–
Cc1ccc2c(c1)c1c(n2CC(C)(O)c2cnc3ccccc3c2)CCN(C)C1 (single isomer, unassigned) [32b]	–	13	−5	9	0	14%	–	–	–	–	−1

Now from value to compound:

Percentage inhibition of ligand binding, Adrenergic α1B (0.1 μM) ([1]; 0.1 µM) [%]	Percentage inhibition of ligand binding, Adrenergic α1B (0.3 μM) [1] [%]	Percentage inhibition of ligand binding, Adrenergic α2A (0.1 μM) [2] [%]	Percentage inhibition of ligand binding, Adrenergic α2A (0.3 μM) ([2]; 0.3 μM compound, 0.3 µM) [%]	Percentage inhibition of ligand binding, Adrenergic α2B (10 nM) ([3]; 10 nM compound) [%]	Percentage inhibition of ligand binding, Adrenergic α2B (30 nM) [3]	Percentage inhibition of ligand binding, Adrenergic α2B (0.1 μM) [3] [%]	inhibition at 0.3 µM ([2]; 0.3 μM compound, read-out: Percentage inhibition of ligand binding, Adrenergic α2A (0.3 μM)) [%]	Percentage inhibition of ligand binding, Adrenergic α2A (0.3 μM) ([2]; 0.3 μM compound) [%]	inhibition at 0.01 µM ([3]; 10 nM compound, read-out: Percentage inhibition of ligand binding, Adrenergic α2B (10 nM)) [%]	Percentage inhibition of ligand binding, Adrenergic α1B (0.1 μM) [1] [%]	Compound
15	24	8	20	11	32% and 36%	79	–	–	–	–	OC(Cn1c2c(c3cc(F)ccc31)C1CCCN1CC2)c1ccncc1 (single isomer, unassigned) [18d]
0	15	3	–	6	10%	33	20	–	–	–	Cc1ccc2c(c1)c1c(n2CC(O)c2cccnc2)CC2CCCN2C1 (single isomer, unassigned) [27a]
13	41	10	–	26	48%	67	–	20	–	–	Cc1ccc2c(c1)c1c(n2CC(O)c2cccnc2)CC2CCCN2C1 (single isomer, unassigned) [27b]
